From article PMC11061419, “Identification of novel small molecule inhibitors of twin arginine translocation (Tat) pathway and their effect on the control of Campylobacter jejuni in chickens” (Frontiers in Microbiology, 2024)

Experiments:
[1] = tested on: Caco-2 cells; experiment: Cytotoxicity on Caco-2 colon epithelial cells (LDH assay); type: cell-based; conditions: for cytotoxicity index on Caco-2 cells: 5 μg SM /ml, 24 h; for toxicity level to Caco-2 cells: 25 μg/mL or 50 μg/mL of SM for 24 h
Experimental: Cytotoxicity of the eight SMs (T1-T8) was tested on Caco-2 cells at 5, 25, and 50 μg/mL, as previously described ([Kumar et al., 2016]; [Deblais et al., 2019]). In brief, a 96-well plate seeded with approximately 1.4 × 10^5 Caco-2 cells/well in MEM medium was challenged with a final SM concentration of 5, 25, and 50 μg/mL. After 24 h of incubation at 37°C in a humidified 5% CO2 incubator, cytotoxic effects were determined using the PierceTM Lactate Dehydrogenase Cytotoxicity Assay Kit (Thermo Fisher Scientific). Cell death was measured based on the production of formazan (chromogenic dye), which can be read at OD570. Equal concentrations (5, 25, and 50 μg/mL) of kanamycin or chloramphenicol, 1% DMSO, and 10X lysis buffer were used as control. The cytotoxicity level was calculated according to the manufacturer’s instructions (N = two independent experiments with three technical replicate for each SM).

[2] = tested on: C. jejuni (mixture of five strains) in chicken ceca; experiment: C. jejuni persistence in ceca of 5-week-old colonized chickens; type: in vivo; conditions: for reduction in C. jejuni population per gram of cecum compared with the DMSO control group: 5-week-old chickens, oral twice a day for 5 days, approximately 0.225 mg of SM per kg body weight; for decrease of cecal C. jejuni colonization/load: 3 and 5-week-old chickens, 5-day treatment twice a day, 0.225 mg or 0.127 mg of SM per kg body weight
Experimental: Four SMs (T1, T2, T7, and T8) were selected from the initial list of eight SMs based on their low MBC in Caco2 cells (<5 μg SM/ml), low cytotoxicity indexes (<20% toxicity at 5 μg SM /ml), and their minimal effect on commensal bacterial species (less than two species inhibited by the SM out of the seven strains tested; Table 1). The antimicrobial efficacy of our SM was tested on 5-week-old chickens, to assess the clearance of C. jejuni load right before slaughter age. Overall, 5-week-old Campylobacter-free, i.e., specific pathogen-free [SPF] chickens were inoculated orally with a mixture of five C. jejuni strains (10^5 CFU/chicken, Supplementary Table S3). Rectal swabs were collected 1 day post-inoculation (DPI) to confirm C. jejuni colonization (CFU/g of feces) in birds. From 2 DPI to 7 DPI, groups of 4–5 chickens were treated orally twice a day with one of the four SMs (T1, T2, T7, or T8; approximately 0.225 mg of SM per kg body weight). Details of the treatment groups and the inoculum are shown in Supplementary Table S3.
(§1) For both experiments, C. jejuni colonized-chickens treated with 0.0001% DMSO and colonized chickens without additional carrier treatment (non-treated) were used as controls (n = 3–6 chicken per group). Details of the treatment groups and the inoculum are shown in Supplementary Table S3. Both 3 and 5-week-old chickens were euthanized at 7 DPI using carbon dioxide gas and ceca (cecal content and the pouch) and were aseptically collected. One of the ceca pairs was immediately stored at −80°C for microbiota studies. The other ceca were suspended in 1X PBS, homogenized, serially diluted, plated on MH media supplemented with Campylobacter Selective Supplement (CSS) agar plate, and incubated for 48 h at 42°C in microaerophilic conditions to determine C. jejuni load in the ceca (CFU/g of ceca).

[3] = tested on: C. jejuni (mixture of five strains) in chicken ceca; experiment: C. jejuni persistence in ceca of 3-week-old colonized chickens; type: in vivo; conditions: 3-week-old chickens, oral twice a day for 5 days, approximately 0.127 mg of SM per kg body weight
Experimental: The antimicrobial efficacy of T1, T7, and T8 was also tested on 3-week-old chickens to assess the clearance of C. jejuni load in chicken right after inoculation. Overall, 3-week-old Campylobacter-free chickens were inoculated orally with a mixture of five C. jejuni strains (10^5 CFU/chicken, Supplementary Table S3). Rectal swabs were collected 1 DPI to confirm the intestinal colonization of the birds by C. jejuni (CFU/g of feces). From 2 DPI, chickens were treated orally twice a day for 5 days (from 2 DPI to 7 DPI) with one of the SMs (T1, T7, or T8; approximately 0.127 mg of SM per kg body weight; n = 5–6 chicken per group). Details of the treatment groups and the inoculum are shown in Supplementary Table S3.
as §1, with “The other ceca were suspended in 1X PBS, homogenized, serially diluted, plated on MH media supplemented with Campylobacter Selective Supplement (CSS) agar plate, and incubated for 48 h at 42°C in microaerophilic conditions to determine C. jejuni load in the ceca (CFU/g of ceca).” left out

Row | Compound | cytotoxicity index on Caco-2 cells [1] | toxicity level to Caco-2 cells [1] | reduction in C. jejuni population per gram of cecum compared with the DMSO control group [2] | decrease of cecal C. jejuni colonization/load [2] | reduction in C. jejuni population per gram of cecal contents compared with the DMSO-treated group [3]
1 | CCCNC(=S)Nc1cc(OC)cc(OC)c1 [T1] | < 20% | 36% | did not reduce | – | –
2 | CC(C)(C)NC(=S)NNc1c(Cl)cncc1Cl [T2] | < 20% | – | 1.2 log | up to 1.2 log | –
3 | CSc1ccccc1-c1nnc(NC(=O)Cc2ccccc2)o1 [T7] | < 20% | – | 0.5 log | up to 1.2 log | 0.9 log
4 | CCN(CC)/C(C)=N/C(=O)Nc1ccccc1 [T8] | < 20% | 33% | 0.5 log | – | –
